Test results as given in US20080214394A1, “N-(4-Pyridyl)Methylsulfonamides For Combating Arthropodal Pests” (BASF Aktiengesellschaft, priority 2005, published 2008).

What was measured:
[1] = test system: Boll Weevil (Anthonomus grandis); experiment: whole plant or invertebrate; assay type: in vivo; details: eggs sprayed with 20 μl, 3 to 5 days
[2] = test system: Tobacco Budworm (Heliothis virescens); experiment: whole plant or invertebrate; assay type: in vivo; details: 144 h, eggs sprayed with 10 μl, 6 days

O=S(=O)(NCc1ccnc2ccccc12)c1ccc(Br)s1 [Compound I-70, 5-bromo-thiophene-2-sulfonic acid (quinoline-4-ylmethyl)-amide]
mortality at 2500 ppm [1]: > 50%
mortality at 2500 ppm [2]: > 75%
